Columns and labels:
HUVEC [1] = experiment: Radiation-induced apoptosis in endothelial cells (HUVEC); assay type: cell-based, human
Description: FIG. 5 is a bar graph depicting an increased percentage of endothelial cells undergoing apoptosis in response to VEGF-R2 inhibition followed by radiotherapy. […] Cells were treated. with 6 Gy of radiation and stained 24 hours later. The percentage of cells undergoing apoptosis was determined for each of the treatment groups as described in Example 6. The mean percentage of apoptotic cells and the standard error of the mean were determined using 4 culture plates in each treatment group.
To determine whether Flk-1 inhibitors enhance radiation-induced intrinsic cell death mechanisms, radiation-induced apoptosis in HUVEC human primary culture endothelial cells, 3B11 murine endothelial cells, and human microdermal endothelial cells (HMEC) was studied following Flk-1 inhibition. […] Cells were then treated with 6 Gy of ionizing radiation. Cultures were stained to reveal apoptotic cells 24 hours later. Endothelial cell death was quantified by counting the number of apoptotic bodies in 100 cells.

GL261 tumors = experiment: Tumor volume assessment / growth delay; assay type: in vivo, C57BL6 mice
Description: GL261 tumors were generated by subcutaneous injection of 10^6 viable GL261 cells suspended in 0.2 ml of a 0.6% agarose solution into the right thigh of C57BL6 mice. […] An equal number of large and intermediate size tumors were present in each group. […] Control mice received identical doses and schedule of either SU5416 alone or radiation alone. Twice each week, tumor volumes were measured using skin calipers as previously described by […] et al., 1998; […] et al., 1995; and Staba et al., 1998. Tumor volumes were calculated using a formula: a×b×c/2, where a=maximal width dimension, b=maximal length dimension, and c=maximal depth dimension, which was derived from the formula for an ellipsoid (πd^3/6). Data were calculated as the percent of original (day 0) tumor volume and graphed as fractional tumor volume ±1 standard deviation for each treatment group. Variance was analyzed by the Kruskal-Wallis method (Kruskal & Wallis, 1952). Growth delay was determined as the number of days required for a tumor to reach a predetermined volume, for example three-fold the original volume, or a volume of 1 cm^3. […] In a second experiment, mice were randomly assigned to each of the four treatment groups for a total of 10 mice in each group. […] Flk-1 inhibition and radiation treatments were initiated fourteen days after the tumor cells had been injected and were performed as described herein above.

[2] = tested on: GL261 and B16F0 tumor blood vessels; experiment: Tumor vascular window model (vascular length density); assay type: in vivo, C57BL6 mice
Description: Penicillin/streptomycin solution (200 μl; available from GIBCO™ Invitrogen Corporation, Carlsbad, Calif., United States of America) was injected into the hind limb of the mouse prior to preparation of the window chamber. The dorsal ventral window chamber was prepared using a 3-gram plastic frame, which was applied to the skin of a test animal and remained attached for the duration of the study. Briefly, the chamber was screwed together, and the epidermis was cut and left open with a plastic covering.
To prepare a test animal for application of the plastic frame, the dorsal midline was found along the animal's back, and a clip was placed to hold the skin in position. […]
GL261 and B16F0 cells were implanted into the dorsal skin fold window chamber. […] Scanned slides were analyzed using OPTIMAS® image analysis software (Bioscan, Inc., Edmonds, Wash., United States of America; available from Media Cybernetics, Silver Spring, Md., United States of America) or IMAGE-PRO® software (Media Cybernetics, Silver Spring, Md., United States of America) as described below.
Vascular center lines were positioned by OPTIMAS® software or IMAGE-PRO® software and verified by an observer blinded to the treatment groups. Tumor blood vessels were quantified using OPTIMAS® software, which quantified the vascular length density of blood vessel within the microscopic field. […]

EPCs in GI261 gliomas = experiment: Endothelial progenitor cell (EPC) infiltration of irradiated tumor; assay type: in vivo, mice; conditions: SU5416 and radiation; tumor sections on days 1, 4 and 7
Description: EPCs were isolated from peripheral circulation, fixed with paraformaldehyde, and incubated with antibodies that specifically bind to Flk or to CD31. A fluorescently-labeled secondary antibody was used to detect Flk and CD31 (PECAM; platelet-endothelial cell adhesion molecule 1) proteins on the surface of EPCs.
Mice bearing GI261 gliomas, generated as described in Example 1, received radiation […] treatment of the tumor. EPCs were isolated from peripheral circulation and fluorescently labeled with Dil (1,1′-dioctadecyl-3,3,3′,3′-tetramethylindocarbocyanine perchlorate; available from Molecular Probes, Inc., Eugene, Oreg., United States of America). Labeled EPCs were then administered via tail vein injection to tumor-bearing mice immediately following tumor irradiation. Tumor sections were obtained on days 1, 4, and 7 following irradiation. In control mice, EPCs were detected in the perivascular space at day 4, and then proliferated and migrated into to the tumor by day 7.

[3] = tested on: GL261 and B16F0 tumor blood flow; experiment: Power Doppler sonography of tumor blood flow; assay type: in vivo, C57BL6 mice
Source text: Power Doppler sonography was used to study the response of tumor blood vessels to ionizing radiation. This method utilizes amplitude to measure flow in microvasculature. Tumors were imaged with a 10-5 MHz ENTOS® linear probe (Advanced Technology Laboratories, Inc., Bothell, Wash., United States of America) attached to an HDI® 5000 diagnostic ultrasound system (Advanced Technology Laboratories, Inc., Bothell, Wash., United States of America).
Power Doppler sonography images were obtained with the power gain set to 82%. Care was taken to minimize motion artifact. A 20-frame cineloop sweep of the entire tumor was obtained with the probe perpendicular to the long axis of the lower extremity along the entire length of the tumor.
The images were analyzed using HDI® software (Advanced Technology Laboratories, Inc., Bothell, Wash., United States of America). This software allows direct evaluation of Power Doppler cineloop raw data. Color area was recorded for the entire tumor. […]
To determine whether inhibition of Flk-1-mediated signal transduction also enhances the cytotoxic effects of radiotherapy in established tumors, Power Doppler sonography was used to quantify blood flow in 1 cm diameter tumors treated with Flk-1 inhibitors and ionizing radiation. […] Blood flow was quantified by Power Doppler sonography on days 4 and 7 according to methods described in Example 3.

[4] = tested on: tumor blood flow (B16F0, LLC, GL261, D54 tumors); experiment: Restoration of tumor blood flow after radiotherapy (Doppler); assay type: in vivo, mice; conditions: SU5416 in combination with radiation, measured daily for 7 days; radiation-only controls restored flow by day 7
Source text: FIG. 7 is a bar graph depicting inhibition of tumor revascularization via administration of a VEGF-R2 inhibitor. Doppler analysis of blood flow in four tumor types is shown on 3, 5, and 7 days following radiation treatment. Animals received radiation treatment alone (control) or in combination with SU5416. In control animals, tumor revascularization occurs within 7 days following radiation treatment. Tumor revascularization is repressed in animals receiving SU5416 in combination with radiation treatment. Open bars, B16F0 tumors; solid bars, LLC tumors; stippled bars, GL261 tumors; hatched bars, D54 tumors.
Tumor-bearing mice were generated as described in Example 1. […] Control animals were treated with radiation alone. Doppler analysis of tumor blood flow was measured daily for 7 days using the methods described in Example 3. In control animals receiving only radiation treatment, restoration of tumor blood flow was observed by day 7.

[5] = in vivo; cited from earlier work
HUVEC [6] = conditions: Lin et al., 1998; cited from earlier work
Flk-1 = conditions: Lin et al., 1998; cited from earlier work

| Molecule | percentage of apoptotic cells, with radiation (HUVEC [1]; 50 μM SU5416 or 10^8 pfu Ad.ExFlk plus 6 Gy, stained 24 hours later) | percentage of cells undergoing apoptosis, no radiation (HUVEC [1]; 50 μM SU5416 or 10^8 pfu Ad.ExFlk, not exposed to ionizing radiation) | tumor growth delay, SU5416 alone (GL261 tumors; 0.75 mg intraperitoneal on days 0, 4, 7 and 11, first experiment) | tumor volume, SU5416 followed by radiation (GL261 tumors; first experiment (FIG. 6A), 0.75 mg i.p. ×4 plus 3 Gy ×8, p=0.01 vs radiation alone, p<0.009 vs SU5416 alone) | tumor volume, SU5416 and radiation (GL261 tumors; second experiment (FIG. 6B), 10 mice per group, p=0.01 vs radiation alone, p=0.006 vs SU5416 alone) | time to complete destruction of tumor blood vessels ([2]; 0.75 mg administered 1 hour prior to 2 Gy, p=0.02 vs radiation alone) | regression of tumor blood vessels, SU5416 alone ([2]; 0.75 mg, absence of ionizing radiation) | extravasation of EPCs into the tumor (EPCs in GI261 gliomas) | reduction in tumor blood flow, SU5416 plus radiation ([3]; 0.75 mg intraperitoneal 1 hour prior to irradiation, 3 Gy per day for 7 days, p=0.004 vs either treatment alone) | reduction in tumor blood flow, SU5416 alone ([3]; 0.75 mg intraperitoneal, 3 doses, no radiation, 1 cm GL261 and B16F0 tumors, days 4 and 7) | tumor blood flow after radiation treatment [4] | plasma half-life [5] | VEGF-induced DNA synthesis and migration in HUVEC (HUVEC [6]) | activation of Flk-1 (Flk-1) |
| --- | --- | --- | --- | --- | --- | --- | --- | --- | --- | --- | --- | --- | --- | --- |
| Cc1cc(C)c(/C=C2\C(=O)Nc3ccccc32)[nH]1 [SU5416] | 14% | 4% | No growth delay | significantly reduced tumor volumes | significantly reduced tumor volumes | ≤ 24 h | minimal regression of the tumor blood vessels and rapid restoration of vasculature | extravasation of EPCs into the tumor was prevented | significant reduction in tumor blood flow | minimal reduction | tumor blood flow was repressed | 1 to 2 h |  |  |
| ExFlk.6His: soluble extracellular component of Flk-1 tagged with 6 histidine residues (protein, UniProt P35918 20-762, looked up, extracellular domain His6 tag) extracellular domain: ASVGLPGDFLHPPKLSTQKDILTILANTTLQITCRGQRDLDWLWPNAQRDSEERVLVTECGGGDSIFCKTLTIPRVVGNDTGAYKCSYRDVDIASTVYVYVRDYRSPFIASVSDQHGIVYITENKNKTVVIPCRGSISNLNVSLCARYPEKRFVPDGNRISWDSEIGFTLPSYMISYAGMVFCEAKINDETYQSIMYIVVVVGYRIYDVILSPPHEIELSAGEKLVLNCTARTELNVGLDFTWHSPPSKSHHKKIVNRDVKPFPGTVAKMFLSTLTIESVTKSDQGEYTCVASSGRMIKRNRTFVRVHTKPFIAFGSGMKSLVEATVGSQVRIPVKYLSYPAPDIKWYRNGRPIESNYTMIVGDELTIMEVTERDAGNYTVILTNPISMEKQSHMVSLVVNVPPQIGEKALISPMDSYQYGTMQTLTCTVYANPPLHHIQWYWQLEEACSYRPGQTSPYACKEWRHVEDFQGGNKIEVTKNQYALIEGKNKTVSTLVIQAANVSALYKCEAINKAGRGERVISFHVIRGPEITVQPAAQPTEQESVSLLCTADRNTFENLTWYKLGSQATSVHMGESLTPVCKNLDALWKLNGTMFSNSTNDILIVAFQNASLQDQGDYVCSAQDKKTKKRHCLVKQLIILERMAPMITGNLENQTTTIGETIEVTCPASGNPTPHITWFKDNETLVEDSGIVLRDGNRNLTIRRVRKEDGGLYTCQACNVLGCARAETLFIIEGAQEKTNLE |  |  |  |  |  |  |  |  |  |  |  |  | inhibits | blocks activation of Flk-1 |

Reference: patent publication US20030181377A1, “Inhibition of VEGF receptor signaling reverses tumor resistance to radiotherapy” (Vanderbilt University, priority 2002, published 2003)
